# From ChEMBL document CHEMBL1201862, “PubChem BioAssay data set” (2004)
# Activity calls are given as the source filed them.
# Legend:
# [1] = molecular target: Eukaryotic translation initiation factor 4E (Mus musculus, UniProt P63073); assay: eIF4E–eIF4G protein interaction inhibitors, dose response, biochemical, TR-FRET (AID 855); assay type: functional;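 further: potency for disrupting eIF4E binding to eIF4GI seen as loss of FRET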
# [2] = molecular target: Large T antigen (Simian virus 40, UniProt P03070); assay type: functional, Betapolyomavirus macacae;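 further: Confirmatory-stage PubChem screen for compounds that inhibit SV40 T antigen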
# Large T antigen, sequence (P03070 whole entry): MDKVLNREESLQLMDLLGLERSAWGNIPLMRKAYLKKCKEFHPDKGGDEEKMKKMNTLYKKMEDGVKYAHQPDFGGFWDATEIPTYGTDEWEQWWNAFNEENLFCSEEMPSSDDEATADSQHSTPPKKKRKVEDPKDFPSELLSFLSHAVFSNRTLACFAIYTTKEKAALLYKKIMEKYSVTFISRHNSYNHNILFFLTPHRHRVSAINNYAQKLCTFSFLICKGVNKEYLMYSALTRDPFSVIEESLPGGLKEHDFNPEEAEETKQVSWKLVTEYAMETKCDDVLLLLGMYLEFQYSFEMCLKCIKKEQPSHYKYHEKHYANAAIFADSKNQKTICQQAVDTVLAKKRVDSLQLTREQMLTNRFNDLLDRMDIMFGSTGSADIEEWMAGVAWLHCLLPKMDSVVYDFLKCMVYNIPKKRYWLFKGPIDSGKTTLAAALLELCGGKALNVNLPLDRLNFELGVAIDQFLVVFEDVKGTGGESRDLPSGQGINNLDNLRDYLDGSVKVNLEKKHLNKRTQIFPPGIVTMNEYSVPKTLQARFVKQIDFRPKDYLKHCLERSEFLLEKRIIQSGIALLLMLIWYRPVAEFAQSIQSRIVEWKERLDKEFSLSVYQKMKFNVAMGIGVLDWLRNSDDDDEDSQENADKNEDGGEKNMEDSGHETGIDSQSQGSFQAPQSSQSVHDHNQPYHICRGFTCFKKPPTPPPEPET
# [3] = molecular target: DNA dC->dU-editing enzyme APOBEC-3G (Homo sapiens, UniProt Q9HC16); assay: Dose Response confirmation of small molecule APOBEC3G DNA Deaminase Inhibitors via a fluorescence-based single-stranded DNA deaminase assay. [Related pubchem assays (depositor defined):AID493012, AID493028]; assay type: functional
# DNA dC->dU-editing enzyme APOBEC-3G, sequence (Q9HC16 whole entry): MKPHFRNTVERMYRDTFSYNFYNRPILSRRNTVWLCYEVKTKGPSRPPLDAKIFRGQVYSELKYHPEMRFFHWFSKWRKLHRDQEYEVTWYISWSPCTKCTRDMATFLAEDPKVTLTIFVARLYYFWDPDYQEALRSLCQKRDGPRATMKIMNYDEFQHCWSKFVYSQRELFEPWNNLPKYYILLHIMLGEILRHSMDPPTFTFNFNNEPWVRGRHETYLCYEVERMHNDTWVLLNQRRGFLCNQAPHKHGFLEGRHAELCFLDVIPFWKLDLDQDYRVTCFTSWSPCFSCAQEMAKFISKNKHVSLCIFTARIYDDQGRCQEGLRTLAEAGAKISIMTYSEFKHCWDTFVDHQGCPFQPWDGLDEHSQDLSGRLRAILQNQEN
# [4] = molecular target: DNA dC->dU-editing enzyme APOBEC-3A (Homo sapiens, UniProt P31941); assay: APOBEC3A DNA deaminase inhibitors, dose response, biochemical (AID 504722); assay type: functional
# DNA dC->dU-editing enzyme APOBEC-3A, sequence (P31941 whole entry): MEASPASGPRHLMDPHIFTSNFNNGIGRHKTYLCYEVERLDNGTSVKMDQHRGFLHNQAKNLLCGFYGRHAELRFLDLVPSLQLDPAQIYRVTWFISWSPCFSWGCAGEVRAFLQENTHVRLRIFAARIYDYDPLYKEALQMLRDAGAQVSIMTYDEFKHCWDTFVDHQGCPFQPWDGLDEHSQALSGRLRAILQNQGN
# [5] = molecular target: Glucose-6-phosphate 1-dehydrogenase (Homo sapiens, UniProt P11413); assay: human G6PD enzyme inhibitors, dose response, selectivity assay for P. falciparum G6PD inhibitor project, biochemical, fluorescence (AID 504792); assay type: functional
# Glucose-6-phosphate 1-dehydrogenase, sequence (P11413 whole entry): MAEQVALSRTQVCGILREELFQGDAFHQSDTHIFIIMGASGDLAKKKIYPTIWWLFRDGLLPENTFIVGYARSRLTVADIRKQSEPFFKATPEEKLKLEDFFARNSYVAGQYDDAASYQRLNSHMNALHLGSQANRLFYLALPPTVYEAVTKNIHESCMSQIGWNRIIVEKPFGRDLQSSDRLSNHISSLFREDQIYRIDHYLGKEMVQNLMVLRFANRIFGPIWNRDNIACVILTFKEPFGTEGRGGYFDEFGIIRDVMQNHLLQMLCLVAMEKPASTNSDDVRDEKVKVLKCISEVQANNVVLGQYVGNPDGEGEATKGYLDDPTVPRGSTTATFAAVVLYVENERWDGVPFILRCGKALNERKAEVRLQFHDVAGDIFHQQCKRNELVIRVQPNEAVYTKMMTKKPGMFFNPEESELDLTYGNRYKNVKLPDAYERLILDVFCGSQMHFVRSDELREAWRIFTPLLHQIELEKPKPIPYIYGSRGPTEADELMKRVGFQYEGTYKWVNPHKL
# [6] = molecular target: E3 ubiquitin-protein ligase XIAP (Homo sapiens, UniProt P98170); assay: Counter Screen using XIAP-Bir3 for Chemical Antagonists of Bir1/2 domains of IAP-family anti-apoptotic proteins. [Related pubchem assays (depositor defined):AID1018, AID1449, AID1514, AID1638, AID1749, AID1750, AID488957, AID488963]
# E3 ubiquitin-protein ligase XIAP, sequence (P98170 whole entry): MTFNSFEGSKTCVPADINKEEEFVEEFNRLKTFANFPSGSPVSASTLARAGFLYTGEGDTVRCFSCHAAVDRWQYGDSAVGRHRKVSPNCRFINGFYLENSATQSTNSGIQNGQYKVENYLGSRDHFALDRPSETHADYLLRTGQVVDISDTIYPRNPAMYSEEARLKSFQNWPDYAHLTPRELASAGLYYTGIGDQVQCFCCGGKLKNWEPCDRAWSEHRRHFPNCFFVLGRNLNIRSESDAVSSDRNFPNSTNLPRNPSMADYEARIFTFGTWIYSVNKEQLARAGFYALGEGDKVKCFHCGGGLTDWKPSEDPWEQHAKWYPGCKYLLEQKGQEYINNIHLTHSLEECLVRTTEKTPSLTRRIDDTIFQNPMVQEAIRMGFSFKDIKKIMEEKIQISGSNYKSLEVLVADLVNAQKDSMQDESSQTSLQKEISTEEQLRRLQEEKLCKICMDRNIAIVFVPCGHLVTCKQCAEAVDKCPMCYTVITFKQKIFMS
# [7] = molecular target: Luciferin 4-monooxygenase (Photinus pyralis, UniProt P08659); assay: firefly luciferase enzyme inhibitors, dose response, biochemical, luminescence (AID 1891)
# Luciferin 4-monooxygenase, sequence (P08659 whole entry): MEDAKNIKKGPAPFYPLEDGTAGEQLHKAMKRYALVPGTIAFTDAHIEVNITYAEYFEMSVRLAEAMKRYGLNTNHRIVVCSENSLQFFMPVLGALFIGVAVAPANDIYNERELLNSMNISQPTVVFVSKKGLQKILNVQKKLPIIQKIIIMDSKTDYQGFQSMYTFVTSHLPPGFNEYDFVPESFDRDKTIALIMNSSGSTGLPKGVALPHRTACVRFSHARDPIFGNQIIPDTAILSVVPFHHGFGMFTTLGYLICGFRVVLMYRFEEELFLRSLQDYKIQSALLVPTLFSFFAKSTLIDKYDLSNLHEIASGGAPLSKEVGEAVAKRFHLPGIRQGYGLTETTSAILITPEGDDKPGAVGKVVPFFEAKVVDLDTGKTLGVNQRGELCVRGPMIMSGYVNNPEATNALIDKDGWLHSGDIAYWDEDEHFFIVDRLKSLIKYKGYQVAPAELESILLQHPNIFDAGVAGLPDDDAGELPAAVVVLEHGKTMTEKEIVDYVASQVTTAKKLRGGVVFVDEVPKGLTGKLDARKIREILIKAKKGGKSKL
# [8] = molecular target: G-protein coupled receptor 55 (Homo sapiens, UniProt Q9Y2T6); assay: GPR55 agonists via beta-arrestin recruitment, primary screen, imaging, U2OS cells, beta-arrestin-GFP redistribution (AID 1961); assay type: functional
# G-protein coupled receptor 55, sequence (Q9Y2T6 whole entry): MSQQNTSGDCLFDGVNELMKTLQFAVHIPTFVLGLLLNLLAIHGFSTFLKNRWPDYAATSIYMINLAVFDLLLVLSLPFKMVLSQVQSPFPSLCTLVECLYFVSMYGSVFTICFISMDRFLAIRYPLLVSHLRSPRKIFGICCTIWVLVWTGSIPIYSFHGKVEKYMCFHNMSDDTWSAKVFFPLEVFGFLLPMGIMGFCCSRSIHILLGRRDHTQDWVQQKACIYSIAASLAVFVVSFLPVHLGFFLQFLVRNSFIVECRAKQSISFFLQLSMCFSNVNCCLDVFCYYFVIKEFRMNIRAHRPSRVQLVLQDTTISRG
# [9] = molecular target: T1, Estrogen receptor (Homo sapiens, UniProt P03372);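 further: potency for inhibiting coactivator peptide recruitment to the receptor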
# T1 sequence (P03372 whole entry): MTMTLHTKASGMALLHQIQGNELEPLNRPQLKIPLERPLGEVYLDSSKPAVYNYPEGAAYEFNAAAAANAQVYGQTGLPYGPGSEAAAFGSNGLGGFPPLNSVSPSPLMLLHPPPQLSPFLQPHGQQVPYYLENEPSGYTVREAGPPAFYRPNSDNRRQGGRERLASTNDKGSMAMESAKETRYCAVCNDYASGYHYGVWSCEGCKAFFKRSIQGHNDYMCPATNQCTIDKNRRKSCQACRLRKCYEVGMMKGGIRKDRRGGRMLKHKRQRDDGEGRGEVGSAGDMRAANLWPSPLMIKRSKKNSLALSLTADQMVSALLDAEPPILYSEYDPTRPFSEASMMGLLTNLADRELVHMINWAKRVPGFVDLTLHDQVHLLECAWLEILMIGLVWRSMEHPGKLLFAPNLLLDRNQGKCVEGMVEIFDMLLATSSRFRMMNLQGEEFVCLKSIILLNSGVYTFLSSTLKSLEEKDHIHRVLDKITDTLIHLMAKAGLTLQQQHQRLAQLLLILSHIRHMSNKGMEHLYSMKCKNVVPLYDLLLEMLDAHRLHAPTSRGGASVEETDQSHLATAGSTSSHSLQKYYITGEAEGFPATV
# [10] = Luminescence Cell-Based Dose Confirmation HTS to Identify Inhibitors of Platelet Dense Granule Release. [Related pubchem assays: 1663 (Primary HTS), 1678 (Summary of Project)]; assay type: functional
# [11] = test system: HEK293; assay: cells; assay type: functional, cell-based; settings: Homo sapiens
# [12] = molecular target: Tumor necrosis factor (Homo sapiens, UniProt P01375); assay: TNFa-triggered NF-kB activation inhibitors, SAR follow-up, cell-based, revised (AID 2337); assay type: functional
# Tumor necrosis factor, sequence (P01375 whole entry): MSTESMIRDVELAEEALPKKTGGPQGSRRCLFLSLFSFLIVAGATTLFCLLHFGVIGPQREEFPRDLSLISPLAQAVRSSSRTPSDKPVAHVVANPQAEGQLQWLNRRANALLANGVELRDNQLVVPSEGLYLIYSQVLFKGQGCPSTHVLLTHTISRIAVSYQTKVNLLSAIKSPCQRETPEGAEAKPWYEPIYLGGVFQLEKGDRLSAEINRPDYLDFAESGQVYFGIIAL
# [13] = test system: HEK293; assay: cells; settings: Homo sapiens
# [14] = test system: INS1; assay: beta cell apoptosis inhibitors, cytokine rescue, dose response, luminescence, retest (AID 449756); assay type: functional, cell-based; settings: Rattus norvegicus;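 further: cell death triggered by IL-1 beta plus TNF-alpha plus IFN-gamma mixture; protective hits raise ATP signal compared with cytokine alone wells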
# [15] = test system: HEK293; assay: cells; assay type: functional, cell-based; settings: Homo sapiens; remark: listed apart in the source
# [16] = molecular target: T2, Nucleotide-binding oligomerization domain-containing protein 1 (Homo sapiens, UniProt Q9Y239); assay: NOD1 signaling inhibitors, SAR follow-up, revised (AID 2333); assay type: functional
# T2 sequence (Q9Y239 whole entry): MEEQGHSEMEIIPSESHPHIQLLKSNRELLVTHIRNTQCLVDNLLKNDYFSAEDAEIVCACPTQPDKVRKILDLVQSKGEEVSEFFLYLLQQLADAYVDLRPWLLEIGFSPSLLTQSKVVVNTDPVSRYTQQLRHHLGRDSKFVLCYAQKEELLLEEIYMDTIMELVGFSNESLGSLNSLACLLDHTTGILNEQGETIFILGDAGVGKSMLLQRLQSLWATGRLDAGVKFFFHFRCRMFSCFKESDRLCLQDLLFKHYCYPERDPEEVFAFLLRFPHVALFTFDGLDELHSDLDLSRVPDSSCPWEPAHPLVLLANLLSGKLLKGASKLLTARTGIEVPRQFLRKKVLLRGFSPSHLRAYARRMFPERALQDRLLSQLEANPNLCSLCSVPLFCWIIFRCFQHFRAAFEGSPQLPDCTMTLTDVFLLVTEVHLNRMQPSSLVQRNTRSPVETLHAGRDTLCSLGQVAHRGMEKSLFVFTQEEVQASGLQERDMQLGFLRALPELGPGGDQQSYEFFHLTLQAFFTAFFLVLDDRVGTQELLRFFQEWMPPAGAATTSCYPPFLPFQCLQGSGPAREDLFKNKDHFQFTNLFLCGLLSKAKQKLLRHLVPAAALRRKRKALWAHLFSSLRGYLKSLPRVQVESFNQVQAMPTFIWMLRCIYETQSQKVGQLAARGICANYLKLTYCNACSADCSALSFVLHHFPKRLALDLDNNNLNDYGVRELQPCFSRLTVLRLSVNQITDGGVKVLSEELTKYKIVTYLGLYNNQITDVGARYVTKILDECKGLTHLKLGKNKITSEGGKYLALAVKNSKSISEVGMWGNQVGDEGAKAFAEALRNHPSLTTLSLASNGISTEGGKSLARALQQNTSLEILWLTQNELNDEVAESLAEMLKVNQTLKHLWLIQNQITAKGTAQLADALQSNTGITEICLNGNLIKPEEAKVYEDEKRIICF
# [17] = test system: HEK293; assay: NOD1 signaling inhibitors, primary screen, cell-based, luminescence, uHTS (AID 1578); assay type: functional; settings: Homo sapiens
# [18] = test system: HEK293; assay: NOD2 signaling inhibitors in MDP-stimulated cells, cell-based, uHTS, luminescence (AID 2001); assay type: functional; settings: Homo sapiens
# [19] = Luminescence Cell-Based Dose Retest to Confirm Inhibitors of Cancer Stem Cells. [Related pubchem assays (depositor defined):AID2717, AID2721]; assay type: functional; settings: Homo sapiens
# [20] = molecular target: T3, Hepatocyte nuclear factor 4-alpha (Homo sapiens, UniProt P41235); assay type: functional, cell-based;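 further: biochemical luminescence-based dose-response counterscreen measuring inhibition of HNF4 dimerization, run alongside a screen for blockers of ABHD5–perilipin-5 interaction; split luciferase complementation of HNF4 fusion proteins in cell lysate measuring dimerization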
# T3 sequence (P41235 whole entry): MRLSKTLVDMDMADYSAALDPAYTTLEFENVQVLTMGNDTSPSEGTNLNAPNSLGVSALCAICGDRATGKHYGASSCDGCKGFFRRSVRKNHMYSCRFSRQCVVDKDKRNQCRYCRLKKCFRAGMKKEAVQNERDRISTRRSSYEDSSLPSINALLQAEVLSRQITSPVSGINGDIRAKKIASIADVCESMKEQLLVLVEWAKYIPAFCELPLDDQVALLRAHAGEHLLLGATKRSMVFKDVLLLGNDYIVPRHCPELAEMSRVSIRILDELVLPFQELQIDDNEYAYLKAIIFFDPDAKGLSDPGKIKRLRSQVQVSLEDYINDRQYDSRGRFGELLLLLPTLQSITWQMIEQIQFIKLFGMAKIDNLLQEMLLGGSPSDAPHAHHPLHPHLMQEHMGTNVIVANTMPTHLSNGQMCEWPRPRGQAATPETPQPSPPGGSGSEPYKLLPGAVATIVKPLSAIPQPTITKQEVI
# [21] = molecular target: Genome polyprotein (dengue virus type 2, UniProt P29990); assay: Dengue-2 NS5 methyltransferase inhibitors, primary screen, biochemical, confirmation dose response (AID 588689); assay type: functional
# Genome polyprotein, sequence (P29990 2492-3391 limits assumed): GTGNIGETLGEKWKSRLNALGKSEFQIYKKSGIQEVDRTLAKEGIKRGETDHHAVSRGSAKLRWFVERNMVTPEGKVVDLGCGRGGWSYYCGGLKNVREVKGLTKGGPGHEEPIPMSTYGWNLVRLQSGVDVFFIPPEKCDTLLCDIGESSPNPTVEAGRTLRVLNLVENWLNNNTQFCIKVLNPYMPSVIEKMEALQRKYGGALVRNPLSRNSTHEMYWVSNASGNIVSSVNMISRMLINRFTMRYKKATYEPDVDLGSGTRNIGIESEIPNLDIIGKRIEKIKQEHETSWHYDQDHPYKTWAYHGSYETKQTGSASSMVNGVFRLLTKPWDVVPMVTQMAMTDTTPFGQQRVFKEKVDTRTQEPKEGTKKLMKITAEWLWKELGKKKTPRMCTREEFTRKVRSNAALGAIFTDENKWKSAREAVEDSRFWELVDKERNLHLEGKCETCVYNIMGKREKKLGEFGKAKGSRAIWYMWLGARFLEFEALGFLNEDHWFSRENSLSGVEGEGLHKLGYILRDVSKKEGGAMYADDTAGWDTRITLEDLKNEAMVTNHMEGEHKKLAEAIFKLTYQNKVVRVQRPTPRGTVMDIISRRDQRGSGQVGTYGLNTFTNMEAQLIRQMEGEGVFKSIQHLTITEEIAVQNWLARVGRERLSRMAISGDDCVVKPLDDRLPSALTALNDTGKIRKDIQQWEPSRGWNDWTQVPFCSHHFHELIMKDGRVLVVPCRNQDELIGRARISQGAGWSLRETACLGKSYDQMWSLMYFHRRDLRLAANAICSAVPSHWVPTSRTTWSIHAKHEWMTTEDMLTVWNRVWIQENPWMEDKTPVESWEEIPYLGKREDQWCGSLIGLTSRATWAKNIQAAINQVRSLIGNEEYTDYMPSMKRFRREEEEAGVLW
# [22] = molecular target: T4, Hexokinase (Trypanosoma brucei, UniProt Q38C41); assay: Confirmation assay for inhibitors of Trypanosoma brucei hexokinase 1-Analogue-first series. [Related pubchem assays (depositor defined):AID1430, AID1632, AID2516, AID2560, AID2579, AID2600, AID449725, AID492951]; assay type: functional
# T4 sequence (Q38C41 whole entry): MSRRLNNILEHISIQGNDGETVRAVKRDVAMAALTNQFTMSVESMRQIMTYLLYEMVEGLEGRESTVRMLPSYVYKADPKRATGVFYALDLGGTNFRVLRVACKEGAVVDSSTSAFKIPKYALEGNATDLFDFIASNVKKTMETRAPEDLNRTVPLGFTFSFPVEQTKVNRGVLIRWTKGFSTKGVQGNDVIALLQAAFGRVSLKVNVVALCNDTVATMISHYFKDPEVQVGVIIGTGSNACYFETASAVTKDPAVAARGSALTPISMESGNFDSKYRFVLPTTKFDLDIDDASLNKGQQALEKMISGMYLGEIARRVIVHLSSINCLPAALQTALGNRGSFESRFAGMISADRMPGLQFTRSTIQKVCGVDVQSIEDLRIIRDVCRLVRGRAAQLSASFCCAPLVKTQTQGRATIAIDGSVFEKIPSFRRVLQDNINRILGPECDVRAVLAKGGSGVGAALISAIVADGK
# [23] = HeLa cell cytotoxicity, dose response, cytotoxicity control for MgcRacGAP inhibitor project (AID 624300); assay type: functional
# [24] = molecular target: T5, Rac GTPase-activating protein 1 (Homo sapiens, UniProt Q9H0H5); assay: MgcRacGAP GTPase-activating activity inhibitors, confirmation, biochemical, ADP Hunter fluorescence, primary and confirmatory (AID 624330); assay type: functional
# T5 sequence (Q9H0H5 whole entry): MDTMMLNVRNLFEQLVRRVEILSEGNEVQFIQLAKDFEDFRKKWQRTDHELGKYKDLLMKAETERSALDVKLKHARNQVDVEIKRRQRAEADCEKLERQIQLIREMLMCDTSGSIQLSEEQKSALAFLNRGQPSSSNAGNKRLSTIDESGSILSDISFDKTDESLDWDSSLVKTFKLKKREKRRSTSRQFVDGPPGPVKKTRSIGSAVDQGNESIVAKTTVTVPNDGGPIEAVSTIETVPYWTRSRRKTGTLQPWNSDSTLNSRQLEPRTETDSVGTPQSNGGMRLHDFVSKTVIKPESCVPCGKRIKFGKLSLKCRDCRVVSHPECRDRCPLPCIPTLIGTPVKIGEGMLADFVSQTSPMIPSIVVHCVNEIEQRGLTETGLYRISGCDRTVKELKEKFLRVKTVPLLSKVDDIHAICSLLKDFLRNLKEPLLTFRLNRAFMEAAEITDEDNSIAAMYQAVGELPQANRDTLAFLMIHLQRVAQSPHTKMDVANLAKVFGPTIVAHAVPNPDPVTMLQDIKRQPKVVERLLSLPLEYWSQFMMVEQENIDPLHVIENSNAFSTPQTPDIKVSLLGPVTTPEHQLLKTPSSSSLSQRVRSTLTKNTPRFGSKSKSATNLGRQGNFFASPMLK
# Eukaryotic translation initiation factor 4E, sequence (P63073 whole entry): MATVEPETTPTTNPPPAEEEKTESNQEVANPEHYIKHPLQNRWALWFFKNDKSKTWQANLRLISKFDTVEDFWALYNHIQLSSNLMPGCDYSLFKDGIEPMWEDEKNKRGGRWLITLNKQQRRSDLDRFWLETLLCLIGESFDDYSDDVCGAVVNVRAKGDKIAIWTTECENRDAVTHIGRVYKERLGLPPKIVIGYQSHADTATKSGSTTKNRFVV
structure (smiles),measurement,setting,value
Nc1nnc(SCc2ccccc2Cl)s1,IC50,[1],> 64 µM (inactive)
C/N=c1/nc(-c2ccccc2)n(-c2ccccc2)s1,IC50,[2],29.4 µM (active)
same,IC50,[3],15.9 µM (active)
same,IC50,[4],> 100 µM (inactive)
same,IC50,[5],10.1 µM (active)
O=c1[nH]c(-c2ccc(F)cc2)nc2c1sc(=S)n2-c1ccccc1,IC50,[6],> 20 µM (inactive)
O=C(NCc1ccco1)c1nn2c(C(F)(F)F)cc(-c3cccs3)nc2c1Br,EC50,[7],> 112 µM (not active)
same,EC50,[8],> 32 µM (inactive)
same,IC50,[9],36.9 µM (not active)
same,EC50,[10],> 112 µM (not active)
COc1ccccc1CNc1ncnc2sccc12,IC50,[11],14.8 µM (active)
same,IC50,[12],4.19 µM (active)
same,IC50,[13],> 20 µM (inactive)
same,AC50,[14],4.26 µM (active)
same,IC50,[15],4.4 µM (active)
same,IC50,[16],3.08 µM (active)
same,EC50,[17],1.69 µM (active)
same,IC50,[18],8.12 µM (active)
Oc1nc(/C=C/c2ccc(Cl)cc2Cl)cc(C(F)(F)F)n1,IC50,[11],> 20 µM (inactive)
same,IC50,[12],3.75 µM (active)
same,IC50,[13],11.9 µM (active)
same,IC50,[15],7.72 µM (active)
same,AC50,[19],1.49 µM (active)
same,IC50,[16],1.74 µM (active)
same,EC50,[17],3.83 µM (active)
same,IC50,[18],5.9 µM (active)
same,IC50,[20],4.57 µM (active)
same,IC50,[21],68.2 µM (active)
COc1ccc(C(=O)Nc2cc(C(F)(F)F)ccc2C(=O)O)cc1,IC50,[22],17 µM (active)
CCOC(=O)CSc1nnc(S)s1,IC50,[3],15 µM (active)
same,IC50,[4],> 100 µM (inactive)
O=c1c2ccccc2sn1-c1ccc(Cl)cc1Cl,CC50,[23],74.7 µM (active)
same,IC50,[22],5.03 µM (active)
same,IC50,[24],31.8 µM (active)
same,IC50,[5],17 µM (active)
Sc1nnc(-c2ccccn2)n1/N=C/c1cccc(Cl)c1,IC50,[3],2.81 µM (active)
same,IC50,[4],> 100 µM (inactive)
O=c1c2ccccc2sn1-c1cccc(F)c1,IC50,[22],1.82 µM (active)
